Biological target: human PAD4 (hPAD4) (Homo sapiens (Human), UniProt Q9UM07)
Test: RFMS Human PAD4 Functional Assay 1
Assay type: biochemical
Settings: RFMS assay 1; 5 nM hPAD4, 250 μM BAEE substrate, 50 μM calcium, 37° C.
Method in brief: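 Recombinant hPAD4 (5 nM) was preincubated with compound (top 50 μM, 0.5% DMSO) for 30 min at 37 °C, then reacted with 250 μM BAEE for 90 min at 37 °C in pH 7.5 HEPES buffer with 50 μM calcium and 5 μM TPEN. Product was derivatized with phenyl glyoxal and quantified by RapidFire MS.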

human PAD4 (hPAD4), sequence (Q9UM07 whole entry): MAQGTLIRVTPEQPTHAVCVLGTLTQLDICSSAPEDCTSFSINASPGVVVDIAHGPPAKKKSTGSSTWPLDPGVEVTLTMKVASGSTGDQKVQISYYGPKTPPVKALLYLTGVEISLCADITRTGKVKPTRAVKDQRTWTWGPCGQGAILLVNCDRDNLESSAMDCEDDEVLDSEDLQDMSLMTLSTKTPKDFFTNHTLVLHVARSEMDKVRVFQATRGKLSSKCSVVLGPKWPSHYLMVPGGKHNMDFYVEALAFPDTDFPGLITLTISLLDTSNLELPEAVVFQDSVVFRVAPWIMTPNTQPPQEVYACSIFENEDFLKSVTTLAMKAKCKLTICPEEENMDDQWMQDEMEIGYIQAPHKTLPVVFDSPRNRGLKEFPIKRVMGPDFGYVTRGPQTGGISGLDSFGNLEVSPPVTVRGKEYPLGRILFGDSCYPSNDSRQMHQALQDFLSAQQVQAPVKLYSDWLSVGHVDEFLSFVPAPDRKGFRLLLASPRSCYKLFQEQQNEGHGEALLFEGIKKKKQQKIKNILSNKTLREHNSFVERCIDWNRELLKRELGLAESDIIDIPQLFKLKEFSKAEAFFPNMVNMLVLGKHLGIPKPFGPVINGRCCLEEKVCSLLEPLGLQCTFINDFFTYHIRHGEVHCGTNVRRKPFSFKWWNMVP

Question: How did the IC50 turn out when `Cc1cc(-c2ccc3cc(-c4nn5cc(C(=O)N6CC7CCC6[C@@H]7N)ccc5c4C)n(CC4CC4)c3c2)c(F)cc1C(N)=O` (stereo partly drawn) [Example 331, 4-(2-{6-[(7R)-7-Amino-2-azabicyclo[2.2.1]heptane-2-carbonyl]-3-methylpyrazolo[1,5-a]pyridin-2-yl}-1-(cyclopropylmethyl)-1H-indol-6-yl)-5-fluoro-2-methylbenzamide] was run?
Answer: Its IC50 is 60 nM.

Question: Which IC50 does the source give for `Cc1c(-c2cc3ccc(-c4ccc5cn[nH]c5c4)cc3n2CC2CC2)nn2cc(C(=O)N3CC4CCC3[C@@H]4N)ccc12` (stereo partly drawn) [Example 332, (7R)-2-{2-[1-(Cyclopropylmethyl)-6-(1H-indazol-6-yl)-1H-indol-2-yl]-3-methylpyrazolo[1,5-a]pyridine-6-carbonyl}-2-azabicyclo[2.2.1]heptan-7-amine] here?
Answer: The IC50 was 20 nM.

Question: Which IC50 does the source give for `Cc1c(-c2cc3ccc(-c4ccc5[nH]ncc5c4)cc3n2CC2CC2)nn2cc(C(=O)N3CC4CCC3[C@@H]4N)ccc12` (stereo partly drawn) [Example 333, (7R)-2-{2-[1-(Cyclopropylmethyl)-6-(1H-indazol-5-yl)-1H-indol-2-yl]-3-methylpyrazolo[1,5-a]pyridine-6-carbonyl}-2-azabicyclo[2.2.1]heptan-7-amine] here?
Answer: Its IC50 is 20 nM.

Question: Which IC50 does the source give for `Cc1cc(-c2ccc3cc(-c4nn5cc(C(=O)N6CC7CCC6[C@@H]7N)ccc5c4C)n(CC4CC4)c3c2)ccc1C(N)=O` (stereo partly drawn) [Example 334, 4-(2-{6-[(7R)-7-Amino-2-azabicyclo[2.2.1]heptane-2-carbonyl]-3-methylpyrazolo[1,5-a]pyridin-2-yl}-1-(cyclopropylmethyl)-1H-indol-6-yl)-2-methylbenzamide] here?
Answer: Its IC50 is 120 nM.

Question: With `Cc1c(-c2cc3ccc(-c4ccc(C(N)=O)cc4C(F)(F)F)cc3n2CC2CC2)nn2cc(C(=O)N3CC4CCC3[C@@H]4N)ccc12` (stereo partly drawn) [Example 335, 4-(2-{6-[(7R)-7-Amino-2-azabicyclo[2.2.1]heptane-2-carbonyl]-3-methylpyrazolo[1,5-a]pyridin-2-yl}-1-(cyclopropylmethyl)-1H-indol-6-yl)-3-(trifluoromethyl)benzamide] as the compound, how does the IC50 read?
Answer: The IC50 was 60 nM.

Question: With `Cc1c(-c2cc3ccc(-c4ccc(Cl)c5c(NS(C)(=O)=O)nn(C)c45)cc3n2CC2CC2)nn2cc(C(=O)N3CC4CCC3[C@@H]4N)ccc12` (stereo partly drawn) [Example 337, N-[7-(2-{6-[(7R)-7-Amino-2-azabicyclo[2.2.1]heptane-2-carbonyl]-3-methylpyrazolo[1,5-a]pyridin-2-yl}-1-(cyclopropylmethyl)-1H-indol-6-yl)-4-chloro-1-methyl-1H-indazol-3-yl]methanesulfonamide] as the compound, how does the IC50 read?
Answer: Its IC50 is 20 nM.

Question: For `Cc1c(-c2cc3ccc(-c4ccccc4N4CCNC4=O)cc3n2CC2CC2)nn2cc(C(=O)N3CC4CCC3[C@@H]4N)ccc12` (stereo partly drawn) [Example 338, 1-[2-(2-{6-[(7R)-7-Amino-2-azabicyclo[2.2.1]heptane-2-carbonyl]-3-methylpyrazolo[1,5-a]pyridin-2-yl}-1-(cyclopropylmethyl)-1H-indol-6-yl)phenyl]imidazolidin-2-one], which IC50 is on record?
Answer: Its IC50 is 50 nM.

Question: `Cc1c(-c2cc3ccc(-c4ccc(CNS(C)(=O)=O)cc4)cc3n2CC2CC2)nn2cc(C(=O)N3CCC[C@@H](N)C3)ccc12` [Example 342, N-{[4-(2-{6-[(3R)-3-Aminopiperidine-1-carbonyl]-3-methylpyrazolo[1,5-a]pyridin-2-yl}-1-(cyclopropylmethyl)-1H-indol-6-yl)phenyl]methyl}methanesulfonamide] was tested. Which IC50 did it give?
Answer: Its IC50 is 930 nM.

Question: `CC(=O)NCc1cccc(-c2ccc3cc(-c4nn5cc(C(=O)N6CCC[C@@H](N)C6)ccc5c4C)n(CC4CC4)c3c2)c1` [Example 343, N-{[3-(2-{6-[(3R)-3-Aminopiperidine-1-carbonyl]-3-methylpyrazolo[1,5-a]pyridin-2-yl}-1-(cyclopropylmethyl)-1H-indol-6-yl)phenyl]methyl}acetamide] was tested. Which IC50 did it give?
Answer: The IC50 was 50 nM.

Question: Which IC50 does the source give for `Cc1c(-c2cc3ccc(-c4cccc(CO)c4)cc3n2CC2CC2)nn2cc(C(=O)N3CCC[C@@H](N)C3)ccc12` [Example 344, [3-(2-{6-[(3R)-3-Aminopiperidine-1-carbonyl]-3-methylpyrazolo[1,5-a]pyridin-2-yl}-1-(cyclopropylmethyl)-1H-indol-6-yl)phenyl]methanol] here?
Answer: The IC50 was 470 nM.

Source: patent publication US12473304B2, “Heterocyclic PAD4 inhibitors” (BRISTOL-MYERS SQUIBB COMPANY, priority 2020, dated 2025)
